Test results published in the kinase profiling compilation of Christmann-Franck et al. (2016).
pIC50: −log10 of the molar value. Values belong to the compound of their own block, whether it stands above or below them.

Assays:
STK3 (human) = STK3 (human) (UniProt Q13188); test: KINOMEscan competition binding; conditions: compound 10.0 µM
SRPK1 (human) = SRPK1 (human) (UniProt Q96SB4); test: KINOMEscan competition binding; conditions: compound 10.0 µM
NEK7 (human) = NEK7 (human) (UniProt Q8TDX7); test: KINOMEscan competition binding; conditions: compound 10.0 µM
PIM2 (human) [1] = target: PIM2 (human) (UniProt Q9P1W9); test: KINOMEscan competition binding; conditions: compound 10.0 µM
AXL (human) = AXL (human) (UniProt P30530); test: KINOMEscan competition binding; conditions: compound 10.0 µM
FLT4 (human) = FLT4 (human) (UniProt P35916); test: KINOMEscan competition binding; conditions: compound 10.0 µM
CSNK2A2 (human) = CSNK2A2 (human) (UniProt P19784); test: KINOMEscan competition binding; conditions: compound 10.0 µM
DAPK3 (human) = DAPK3 (human) (UniProt O43293); test: KINOMEscan competition binding; conditions: compound 10.0 µM
MERTK (human) = MERTK (human) (UniProt Q12866); test: KINOMEscan competition binding; conditions: compound 10.0 µM
CDK16 (human) = CDK16 (human) (UniProt Q00536); test: KINOMEscan competition binding; conditions: compound 10.0 µM
AURKC (human) = AURKC (human) (UniProt Q9UQB9); test: KINOMEscan competition binding; conditions: compound 10.0 µM
[2] = test system: FLT3 (human), P36888 [D835H]; test: KINOMEscan competition binding; conditions: compound 10.0 µM
HIPK1 (human) = HIPK1 (human) (UniProt Q86Z02); test: KINOMEscan competition binding; conditions: compound 10.0 µM
CSNK2A1 (human) = CSNK2A1 (human) (UniProt P68400); test: KINOMEscan competition binding; conditions: compound 10.0 µM
STK17B (human) = STK17B (human) (UniProt O94768); test: KINOMEscan competition binding; conditions: compound 10.0 µM
PLK4 (human) = PLK4 (human) (UniProt O00444); test: KINOMEscan competition binding; conditions: compound 10.0 µM
PIM1 (human) [3] = target: PIM1 (human) (UniProt P11309); test: KINOMEscan competition binding; conditions: compound 10.0 µM
TGFBR2 (human) = TGFBR2 (human) (UniProt P37173); test: KINOMEscan competition binding; conditions: compound 10.0 µM
MAPK14 (human) = MAPK14 (human) (UniProt Q16539); test: KINOMEscan competition binding; conditions: compound 10.0 µM
[4] = target: TYK2 JH2 pseudokinase (human) (UniProt P29597); test: KINOMEscan competition binding; conditions: compound 10.0 µM
DAPK2 (human) = DAPK2 (human) (UniProt Q9UIK4); test: KINOMEscan competition binding; conditions: compound 10.0 µM
GAK (human) = GAK (human) (UniProt O14976); test: KINOMEscan competition binding; conditions: compound 10.0 µM
MAPK9 (human) = MAPK9 (human) (UniProt P45984); test: KINOMEscan competition binding; conditions: compound 10.0 µM
MAPK10 (human) = MAPK10 (human) (UniProt P53779); test: KINOMEscan competition binding; conditions: compound 10.0 µM
MAPK8 (human) = MAPK8 (human) (UniProt P45983); test: KINOMEscan competition binding; conditions: compound 10.0 µM
SRPK3 (human) = SRPK3 (human) (UniProt Q9UPE1); test: KINOMEscan competition binding; conditions: compound 10.0 µM
STK17A (human) = STK17A (human) (UniProt Q9UEE5); test: KINOMEscan competition binding; conditions: compound 10.0 µM
NEK6 (human) = NEK6 (human) (UniProt Q9HC98); test: KINOMEscan competition binding; conditions: compound 10.0 µM
ALK (human) = ALK (human) (UniProt Q9UM73); test: KINOMEscan competition binding; conditions: compound 10.0 µM
PIM3 (human) = PIM3 (human) (UniProt Q86V86); test: KINOMEscan competition binding; conditions: compound 10.0 µM
RIOK3 (human) = RIOK3 (human) (UniProt O14730); test: KINOMEscan competition binding; conditions: compound 10.0 µM
PIM2 (human) [5] = target: PIM2 (human) (UniProt Q9P1W9); test: SelectScreen, TR FRET
PIM1 (human) [6] = target: PIM1 (human) (UniProt P11309); test: SelectScreen, TR FRET
TNK1 (human) = TNK1 (human) (UniProt Q13470); test: KINOMEscan competition binding; conditions: compound 10.0 µM
[7] = test system: EIF2AK4 KD2 (human), Q9P2K8 [S808G]; test: KINOMEscan competition binding; conditions: compound 10.0 µM
[8] = test system: ABL1 (human), P00519 [F317I]; test: KINOMEscan competition binding; conditions: compound 10.0 µM
[9] = test system: KIT (human), P10721 [V559D]; test: KINOMEscan competition binding; conditions: compound 10.0 µM
PDGFRB (human) = PDGFRB (human) (UniProt P09619); test: KINOMEscan competition binding; conditions: compound 10.0 µM
NEK2 (human) = NEK2 (human) (UniProt P51955); test: KINOMEscan competition binding; conditions: compound 10.0 µM
KIT (human) = KIT (human) (UniProt P10721); test: KINOMEscan competition binding; conditions: compound 10.0 µM
[10] = test system: KIT (human), P10721 [V559D/V654A]; test: KINOMEscan competition binding; conditions: compound 10.0 µM
[11] = test system: FLT3 (human), P36888 [K663Q]; test: KINOMEscan competition binding; conditions: compound 10.0 µM
CSF1R (human) = CSF1R (human) (UniProt P07333); test: KINOMEscan competition binding; conditions: compound 10.0 µM
FRK (human) = FRK (human) (UniProt P42685); test: KINOMEscan competition binding; conditions: compound 10.0 µM
[12] = test system: KIT (human), P10721 [D816V]; test: KINOMEscan competition binding; conditions: compound 10.0 µM
SIK2 (human) = SIK2 (human) (UniProt Q9H0K1); test: KINOMEscan competition binding; conditions: compound 10.0 µM
PRKD3 (human) = PRKD3 (human) (UniProt O94806); test: KINOMEscan competition binding; conditions: compound 10.0 µM
BMP2K (human) = BMP2K (human) (UniProt Q9NSY1); test: KINOMEscan competition binding; conditions: compound 10.0 µM
RIOK1 (human) = RIOK1 (human) (UniProt Q9BRS2); test: KINOMEscan competition binding; conditions: compound 10.0 µM
STK33 (human) = STK33 (human) (UniProt Q9BYT3); test: KINOMEscan competition binding; conditions: compound 10.0 µM
[13] = test system: ABL1 (human), P00519 [F317L]; test: KINOMEscan competition binding; conditions: compound 10.0 µM
SLK (human) = SLK (human) (UniProt Q9H2G2); test: KINOMEscan competition binding; conditions: compound 10.0 µM
PDGFRA (human) = PDGFRA (human) (UniProt P16234); test: KINOMEscan competition binding; conditions: compound 10.0 µM
FGFR4 (human) = FGFR4 (human) (UniProt P22455); test: KINOMEscan competition binding; conditions: compound 10.0 µM
BLK (human) = BLK (human) (UniProt P51451); test: KINOMEscan competition binding; conditions: compound 10.0 µM
CHEK1 (human) = CHEK1 (human) (UniProt O14757); test: KINOMEscan competition binding; conditions: compound 10.0 µM
[14] = test system: KIT (human), P10721 [V559D/T670I]; test: KINOMEscan competition binding; conditions: compound 10.0 µM
PIP5K1A (human) = PIP5K1A (human) (UniProt Q99755); test: KINOMEscan competition binding; conditions: compound 10.0 µM
PLK3 (human) = PLK3 (human) (UniProt Q9H4B4); test: KINOMEscan competition binding; conditions: compound 10.0 µM
FLT3 (human) = FLT3 (human) (UniProt P36888); test: KINOMEscan competition binding; conditions: compound 10.0 µM
TNK2 (human) = TNK2 (human) (UniProt Q07912); test: KINOMEscan competition binding; conditions: compound 10.0 µM
PRKD1 (human) = PRKD1 (human) (UniProt Q15139); test: KINOMEscan competition binding; conditions: compound 10.0 µM
RPS6KA1 KD2 (human) = RPS6KA1 KD2 (human) (UniProt Q15418); test: KINOMEscan competition binding; conditions: compound 10.0 µM
RPS6KA6 KD2 (human) = RPS6KA6 KD2 (human) (UniProt Q9UK32); test: KINOMEscan competition binding; conditions: compound 10.0 µM
MYLK4 (human) = MYLK4 (human) (UniProt Q86YV6); test: KINOMEscan competition binding; conditions: compound 10.0 µM

RIOK3 (human), sequence (O14730 whole entry, looked up): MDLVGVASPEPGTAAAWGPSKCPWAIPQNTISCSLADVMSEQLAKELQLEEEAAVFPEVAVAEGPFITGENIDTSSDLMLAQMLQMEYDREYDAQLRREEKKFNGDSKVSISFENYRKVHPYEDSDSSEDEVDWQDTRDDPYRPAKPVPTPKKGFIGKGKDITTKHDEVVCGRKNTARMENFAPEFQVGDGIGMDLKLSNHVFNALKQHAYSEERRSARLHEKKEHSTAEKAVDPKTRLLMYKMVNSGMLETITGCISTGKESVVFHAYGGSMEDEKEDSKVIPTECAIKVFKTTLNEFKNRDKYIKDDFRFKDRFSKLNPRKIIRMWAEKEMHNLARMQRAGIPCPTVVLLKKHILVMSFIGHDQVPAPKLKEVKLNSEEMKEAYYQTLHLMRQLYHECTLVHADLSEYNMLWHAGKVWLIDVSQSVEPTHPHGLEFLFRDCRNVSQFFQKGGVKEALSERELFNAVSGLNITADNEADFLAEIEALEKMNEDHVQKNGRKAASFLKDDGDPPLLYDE
FLT4 (human), sequence (P35916 whole entry, looked up): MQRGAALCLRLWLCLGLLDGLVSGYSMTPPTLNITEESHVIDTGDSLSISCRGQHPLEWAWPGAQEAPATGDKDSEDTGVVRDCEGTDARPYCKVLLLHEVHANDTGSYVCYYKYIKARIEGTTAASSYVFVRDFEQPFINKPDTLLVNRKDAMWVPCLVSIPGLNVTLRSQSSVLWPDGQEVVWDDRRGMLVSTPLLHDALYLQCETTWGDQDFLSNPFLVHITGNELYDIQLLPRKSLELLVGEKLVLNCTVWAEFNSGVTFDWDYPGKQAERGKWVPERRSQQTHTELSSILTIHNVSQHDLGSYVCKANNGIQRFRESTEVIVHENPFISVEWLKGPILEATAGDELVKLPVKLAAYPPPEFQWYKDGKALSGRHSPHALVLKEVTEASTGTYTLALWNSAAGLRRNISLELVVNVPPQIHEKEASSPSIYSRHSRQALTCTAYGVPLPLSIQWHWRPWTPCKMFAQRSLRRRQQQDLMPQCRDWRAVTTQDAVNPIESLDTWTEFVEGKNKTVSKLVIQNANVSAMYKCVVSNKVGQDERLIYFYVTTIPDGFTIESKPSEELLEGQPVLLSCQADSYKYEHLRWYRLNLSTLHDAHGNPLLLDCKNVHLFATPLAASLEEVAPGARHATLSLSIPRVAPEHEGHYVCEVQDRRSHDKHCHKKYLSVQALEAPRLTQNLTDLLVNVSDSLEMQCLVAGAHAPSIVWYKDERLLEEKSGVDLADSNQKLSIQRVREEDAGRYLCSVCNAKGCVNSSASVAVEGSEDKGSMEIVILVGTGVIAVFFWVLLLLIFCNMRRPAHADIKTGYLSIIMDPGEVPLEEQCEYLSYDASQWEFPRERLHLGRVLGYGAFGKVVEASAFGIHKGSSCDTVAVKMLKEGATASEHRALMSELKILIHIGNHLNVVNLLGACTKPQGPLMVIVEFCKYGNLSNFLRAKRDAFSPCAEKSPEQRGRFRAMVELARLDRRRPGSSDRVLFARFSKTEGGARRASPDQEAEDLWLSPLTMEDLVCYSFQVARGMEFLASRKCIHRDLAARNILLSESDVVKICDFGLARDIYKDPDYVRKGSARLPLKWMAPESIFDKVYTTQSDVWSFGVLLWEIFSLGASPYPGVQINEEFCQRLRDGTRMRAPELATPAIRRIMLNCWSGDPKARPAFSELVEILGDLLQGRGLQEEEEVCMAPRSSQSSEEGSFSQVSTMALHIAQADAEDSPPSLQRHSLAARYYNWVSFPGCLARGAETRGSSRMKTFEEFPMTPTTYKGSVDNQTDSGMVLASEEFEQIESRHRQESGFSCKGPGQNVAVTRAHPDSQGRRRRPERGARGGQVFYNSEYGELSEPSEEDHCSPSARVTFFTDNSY
GAK (human), sequence (O14976 whole entry, looked up): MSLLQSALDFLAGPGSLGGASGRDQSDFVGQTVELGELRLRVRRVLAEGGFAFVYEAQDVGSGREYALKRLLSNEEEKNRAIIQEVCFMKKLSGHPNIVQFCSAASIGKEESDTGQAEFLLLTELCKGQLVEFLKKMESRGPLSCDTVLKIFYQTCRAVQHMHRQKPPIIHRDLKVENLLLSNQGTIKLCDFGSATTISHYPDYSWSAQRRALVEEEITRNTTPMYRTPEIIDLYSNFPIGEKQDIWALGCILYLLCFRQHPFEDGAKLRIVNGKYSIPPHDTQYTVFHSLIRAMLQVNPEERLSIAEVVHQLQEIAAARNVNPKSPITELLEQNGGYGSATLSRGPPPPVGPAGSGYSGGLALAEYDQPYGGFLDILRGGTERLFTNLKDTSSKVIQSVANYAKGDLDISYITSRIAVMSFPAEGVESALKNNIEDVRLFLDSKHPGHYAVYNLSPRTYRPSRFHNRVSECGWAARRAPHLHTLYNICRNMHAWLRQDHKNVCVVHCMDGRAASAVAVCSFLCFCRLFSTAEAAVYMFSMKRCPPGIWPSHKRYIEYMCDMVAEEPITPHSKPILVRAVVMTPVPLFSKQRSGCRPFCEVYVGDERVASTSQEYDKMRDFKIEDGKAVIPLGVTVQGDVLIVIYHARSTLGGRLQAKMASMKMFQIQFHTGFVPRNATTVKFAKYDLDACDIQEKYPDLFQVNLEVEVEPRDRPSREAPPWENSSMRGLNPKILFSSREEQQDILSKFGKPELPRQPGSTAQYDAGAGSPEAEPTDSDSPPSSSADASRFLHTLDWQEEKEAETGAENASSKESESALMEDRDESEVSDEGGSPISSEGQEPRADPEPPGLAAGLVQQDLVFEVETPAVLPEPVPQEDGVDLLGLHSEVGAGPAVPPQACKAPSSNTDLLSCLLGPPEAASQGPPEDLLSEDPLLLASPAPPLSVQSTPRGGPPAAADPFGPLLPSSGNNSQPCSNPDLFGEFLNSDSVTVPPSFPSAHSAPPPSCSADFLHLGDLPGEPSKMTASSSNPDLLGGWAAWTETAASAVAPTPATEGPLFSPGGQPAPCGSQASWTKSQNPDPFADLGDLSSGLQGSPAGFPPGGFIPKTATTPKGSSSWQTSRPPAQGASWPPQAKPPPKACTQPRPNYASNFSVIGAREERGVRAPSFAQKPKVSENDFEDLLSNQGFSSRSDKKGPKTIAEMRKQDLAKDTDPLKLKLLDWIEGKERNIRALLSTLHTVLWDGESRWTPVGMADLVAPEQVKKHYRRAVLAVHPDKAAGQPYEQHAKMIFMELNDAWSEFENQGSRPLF
TYK2 JH2 pseudokinase (human), sequence (P29597 whole entry, looked up): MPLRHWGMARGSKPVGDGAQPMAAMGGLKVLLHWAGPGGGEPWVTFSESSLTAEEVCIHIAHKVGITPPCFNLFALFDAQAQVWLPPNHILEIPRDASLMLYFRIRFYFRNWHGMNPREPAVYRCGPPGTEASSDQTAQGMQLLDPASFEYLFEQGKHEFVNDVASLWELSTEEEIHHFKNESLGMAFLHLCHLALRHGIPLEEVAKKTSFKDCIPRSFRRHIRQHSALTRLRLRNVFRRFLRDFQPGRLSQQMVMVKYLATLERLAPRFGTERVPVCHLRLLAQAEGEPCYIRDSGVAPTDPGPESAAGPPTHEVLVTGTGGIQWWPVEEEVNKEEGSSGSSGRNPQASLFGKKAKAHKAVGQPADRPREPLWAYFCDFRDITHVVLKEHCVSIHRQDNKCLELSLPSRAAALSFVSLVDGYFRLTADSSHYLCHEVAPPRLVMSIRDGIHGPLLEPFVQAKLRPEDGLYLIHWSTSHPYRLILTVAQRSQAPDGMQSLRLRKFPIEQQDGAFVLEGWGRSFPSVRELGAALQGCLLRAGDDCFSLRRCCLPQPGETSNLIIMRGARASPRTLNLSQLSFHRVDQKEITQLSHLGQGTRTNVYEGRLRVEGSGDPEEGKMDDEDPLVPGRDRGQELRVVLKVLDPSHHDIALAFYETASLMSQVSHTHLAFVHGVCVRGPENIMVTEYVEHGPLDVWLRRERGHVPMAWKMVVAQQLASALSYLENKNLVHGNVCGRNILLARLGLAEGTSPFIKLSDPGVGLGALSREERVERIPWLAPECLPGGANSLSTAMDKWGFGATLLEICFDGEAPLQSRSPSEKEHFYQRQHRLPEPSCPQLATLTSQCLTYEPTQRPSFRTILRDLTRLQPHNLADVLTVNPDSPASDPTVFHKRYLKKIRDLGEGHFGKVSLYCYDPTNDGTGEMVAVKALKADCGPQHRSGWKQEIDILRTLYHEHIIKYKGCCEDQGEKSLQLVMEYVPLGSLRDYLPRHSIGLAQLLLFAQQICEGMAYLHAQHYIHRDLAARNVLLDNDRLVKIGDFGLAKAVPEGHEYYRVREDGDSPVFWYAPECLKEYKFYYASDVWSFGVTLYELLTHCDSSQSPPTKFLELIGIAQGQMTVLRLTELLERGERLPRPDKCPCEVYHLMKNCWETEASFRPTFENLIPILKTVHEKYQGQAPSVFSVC
PIM1 (human), sequence (P11309 whole entry, looked up): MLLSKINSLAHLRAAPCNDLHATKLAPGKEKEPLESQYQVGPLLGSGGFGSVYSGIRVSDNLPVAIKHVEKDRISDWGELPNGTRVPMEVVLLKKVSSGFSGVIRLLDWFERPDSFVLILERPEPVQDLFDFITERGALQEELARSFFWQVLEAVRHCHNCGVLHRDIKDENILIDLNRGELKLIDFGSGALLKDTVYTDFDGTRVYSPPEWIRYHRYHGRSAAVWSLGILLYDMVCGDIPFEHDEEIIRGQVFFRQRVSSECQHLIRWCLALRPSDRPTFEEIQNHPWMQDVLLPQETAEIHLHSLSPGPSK
PIM2 (human), sequence (Q9P1W9 whole entry, looked up): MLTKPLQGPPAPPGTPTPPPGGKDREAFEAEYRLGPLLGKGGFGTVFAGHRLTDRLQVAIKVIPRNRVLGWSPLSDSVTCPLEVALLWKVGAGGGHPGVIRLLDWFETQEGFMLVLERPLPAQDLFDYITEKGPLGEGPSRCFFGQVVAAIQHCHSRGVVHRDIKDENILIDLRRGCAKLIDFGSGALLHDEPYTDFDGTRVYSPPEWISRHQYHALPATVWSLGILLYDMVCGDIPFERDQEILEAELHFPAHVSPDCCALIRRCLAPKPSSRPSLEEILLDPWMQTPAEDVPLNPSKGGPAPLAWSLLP

kinase still bound, per cent of control (STK3 (human)): 34% | kinase still bound, per cent of control (SRPK1 (human)): 32% | kinase still bound, per cent of control (NEK7 (human)): 27% | kinase still bound, per cent of control (PIM2 (human) [1]): 0.8% | kinase still bound, per cent of control (AXL (human)): 29% | kinase still bound, per cent of control (FLT4 (human)): 25% | kinase still bound, per cent of control (CSNK2A2 (human)): 12% | kinase still bound, per cent of control (DAPK3 (human)): 22% | kinase still bound, per cent of control (MERTK (human)): 20% | kinase still bound, per cent of control (CDK16 (human)): 1.4% | kinase still bound, per cent of control (AURKC (human)): 27% | kinase still bound, per cent of control [2]: 34% | kinase still bound, per cent of control (HIPK1 (human)): 3.7% | kinase still bound, per cent of control (CSNK2A1 (human)): 8% | kinase still bound, per cent of control (STK17B (human)): 3.6% | kinase still bound, per cent of control (PLK4 (human)): 1.6% | kinase still bound, per cent of control (PIM1 (human) [3]): 3% | kinase still bound, per cent of control (TGFBR2 (human)): 14% | kinase still bound, per cent of control (MAPK14 (human)): 33% | kinase still bound, per cent of control [4]: 17% | kinase still bound, per cent of control (DAPK2 (human)): 17% | kinase still bound, per cent of control (GAK (human)): 28% | kinase still bound, per cent of control (MAPK9 (human)): 9.8% | kinase still bound, per cent of control (MAPK10 (human)): 30% | kinase still bound, per cent of control (MAPK8 (human)): 30% | kinase still bound, per cent of control (SRPK3 (human)): 33% | kinase still bound, per cent of control (STK17A (human)): 1.8% | kinase still bound, per cent of control (NEK6 (human)): 26% | kinase still bound, per cent of control (ALK (human)): 19% | kinase still bound, per cent of control (PIM3 (human)): 2.6% | kinase still bound, per cent of control (RIOK3 (human)): 30% | pIC50 (PIM2 (human) [5]): 5.96 | pIC50 (PIM1 (human) [6]): 5.79
SMILES: O=C1NC(=S)S/C1=C\c1ccc(-c2cccc3ccccc23)o1

kinase still bound, per cent of control (TNK1 (human)): 25% | kinase still bound, per cent of control [7]: 21% | kinase still bound, per cent of control [8]: 13% | kinase still bound, per cent of control [9]: 0% | kinase still bound, per cent of control (FLT4 (human)): 33% | kinase still bound, per cent of control (PDGFRB (human)): 0.05% | kinase still bound, per cent of control (NEK2 (human)): 24% | kinase still bound, per cent of control (KIT (human)): 0% | kinase still bound, per cent of control [10]: 8.4% | kinase still bound, per cent of control [11]: 19% | kinase still bound, per cent of control (CSF1R (human)): 0.8% | kinase still bound, per cent of control (FRK (human)): 8.2% | kinase still bound, per cent of control [2]: 27% | kinase still bound, per cent of control [12]: 12% | kinase still bound, per cent of control (SIK2 (human)): 18% | kinase still bound, per cent of control (PRKD3 (human)): 30% | kinase still bound, per cent of control (BMP2K (human)): 29% | kinase still bound, per cent of control (RIOK1 (human)): 21% | kinase still bound, per cent of control (STK33 (human)): 12% | kinase still bound, per cent of control [13]: 19% | kinase still bound, per cent of control (SLK (human)): 31% | kinase still bound, per cent of control (PDGFRA (human)): 1.8% | kinase still bound, per cent of control (FGFR4 (human)): 17% | kinase still bound, per cent of control [4]: 27% | kinase still bound, per cent of control (BLK (human)): 23% | kinase still bound, per cent of control (CHEK1 (human)): 6% | kinase still bound, per cent of control [14]: 33% | kinase still bound, per cent of control (GAK (human)): 0.85% | kinase still bound, per cent of control (PIP5K1A (human)): 11% | kinase still bound, per cent of control (PLK3 (human)): 9.5% | kinase still bound, per cent of control (FLT3 (human)): 11% | kinase still bound, per cent of control (TNK2 (human)): 8.6% | kinase still bound, per cent of control (PRKD1 (human)): 29% | kinase still bound, per cent of control (RPS6KA1 KD2 (human)): 14% | kinase still bound, per cent of control (RPS6KA6 KD2 (human)): 2% | kinase still bound, per cent of control (MYLK4 (human)): 7.8% | kinase still bound, per cent of control (RIOK3 (human)): 31%
SMILES: COc1cc(N2CCN(C)CC2)ccc1Nc1ncc2c(n1)N1CCC[C@H]1CC(=O)N2
